Consider 30 compounds from patent publication US20250282749A1 (Tango Therapeutics, Inc., priority 2022, published 2025).

Common to all, as to format: cell-based
Test [1] relates to HAP1 MTAP-deleted cell line. Briefly: viability assay for the MTAP-deleted cell line.
For test [2], the system named is PRMT5 (SDMA) in HAP1 MTAP-intact cell line. Briefly: SDMA in-cell western assay, HAP1 MTAP-intact cell line. The following applies: Homo sapiens, HAP1 MTAP-intact cell line (endogenous MTAP), read-out: Hap 1 MTAP intact IC50. The source says: (§1) HAP1 MTAP-intact is a cell line in which endogenous levels of MTAP are expressed, and HAP1 MTAP-deleted is an MTAP-null cell line.

The subject of test [3] is PRMT5 (SDMA) in HAP1 MTAP-deleted cell line. Briefly: SDMA in-cell western assay, HAP1 MTAP-deleted cell line. The settings on record: for IC50 / IC90: Homo sapiens, SDMA in-cell western, HAP1 MTAP-deleted (MTAP-null) cell line; for Hap1 MTAP intact/deleted ratio: ratio of SDMA in-cell western IC50 in HAP1 MTAP-intact to IC50 in HAP1 MTAP-deleted cell line.
Excerpt: as §1

Like-named read-outs stand apart in the source and are kept apart here. Bounds are passed on as bounds.

The term IC50 denotes the concentration that gives 50% inhibition. For orientation: IC90 means the point of the concentration-response curve where the effect stands at 90%. Read a low IC90 as an effect from little substance. As to `Cc1cc(NC(=O)C(=O)N2C[C@@H](C)N(C(=O)OC(C)(C)C)C[C@@H]2c2ccc(F)c(F)c2)cnc1N` [Compound 21], the IC50 in test [1] (Homo sapiens) fell in the range of 100 to 1000 nM. The IC50 in test [2] was over 50 nM. In test [3], the IC50 lay within 5 to 50 nM, the IC90 lay within 75 to 125 nM and the “Hap1 MTAP intact/deleted ratio” value is recorded as “C (an IC50 ratio of less than 15 fold)”.
In test [1] (Homo sapiens), `C[C@@H]1CN(C(=O)C(=O)Nc2cnc(N)c3cn[nH]c23)[C@@H](c2ccccc2)CN1C(=O)C(C)(C)C` [Compound 124, N-(4-amino-1H-pyrazolo[4,3-c]pyridin-7-yl)-2-((2S,5R)-5-methyl-2-phenyl-4-pivaloylpiperazin-1-yl)-2-oxoacetamide] had an IC50 of under 100 nM.
In the case of `C[C@@H]1CN(C(=O)C(=O)Nc2cnc(N)c(C3CC3)c2)[C@@H](c2ccc(F)cc2)CN1C(=O)C1(C)CC1` [Compound 8, N-(6-amino-5-cyclopropylpyridin-3-yl)-2-((2S,5R)-2-(4-fluorophenyl)-5-methyl-4-(1-methylcyclopropanecarbonyl)piperazin-1-yl)-2-oxoacetamide], in test [1] (Homo sapiens), the IC50 is under 100 nM. For the same compound, in test [2], the IC50 lay in the range of 5 to 50 nM. In test [3], the IC50 is under 5 nM, the IC90 is under 75 nM and the “Hap1 MTAP intact/deleted ratio” value is listed as “C (an IC50 ratio of less than 15 fold)”.
Compound `CC(C)C(=O)N1C[C@H](c2ccccc2)N(C(=O)C(=O)Nc2cnc(N)c3cn[nH]c23)C[C@H]1C` [Compound 50] showed a 50% inhibitory concentration (IC50) in test [1] (Homo sapiens) of under 100 nM.
In turn, `Cc1cc(NC(=O)C(=O)N2C[C@@H](C)N(C(=O)C(C)(C)C)C[C@@H]2c2ccc(F)cc2)cnc1N` (stereo in doubt) [Compound 106, N-(6-amino-5-methylpyridin-3-yl)-2-(2-(4-fluorophenyl)-5-methyl-4-pivaloylpiperazin-1-yl)-2-oxoacetamide] yielded an IC50 in test [1] of under 100 nM.
Regarding `COc1ncc(NC(=O)C(=O)N2C[C@@H](C)N(C(=O)C3(C)CC3)C[C@@H]2c2ccc(F)cc2)cc1C(N)=O` [Compound 102, 5-(2-((2S,5R)-2-(4-fluorophenyl)-5-methyl-4-(1-methylcyclopropanecarbonyl)piperazin-1-yl)-2-oxoacetamido)-2-methoxynicotinamide], in test [1] (Homo sapiens), the IC50 is over 1000 nM.
Consider `Cc1cc(NC(=O)C(=O)N2C[C@@H](C)N(C(=O)C3(C)CC3)C[C@@H]2c2ccc(F)cc2)cnc1N` (stereo in doubt) [Compound 108, N-(6-amino-5-methylpyridin-3-yl)-2-(2-(4-fluorophenyl)-5-methyl-4-(1-methylcyclopropanecarbonyl)piperazin-1-yl)-2-oxoacetamide], for which, in test [1], the IC50 is under 100 nM.
`C[C@@H]1CN(C(=O)C(=O)Nc2cnc(N)c(C3CC3)c2)[C@@H](c2ccccc2)CN1C(=O)C1(C(F)(F)F)CC1` [Compound 51, N-(6-amino-5-cyclopropylpyridin-3-yl)-2-((2S,5R)-5-methyl-2-phenyl-4-(1-(trifluoromethyl)cyclopropanecarbonyl)piperazin-1-yl)-2-oxoacetamide]: the IC50 in test [1] (Homo sapiens) was under 100 nM.
On to `CC(C)CN1C[C@H](c2ccc(F)cc2)N(C(=O)C(=O)Nc2cnc(N)c(C3CC3)c2)C[C@@H]1C` (single isomer, unassigned) [Compound 48], for which the IC50 in test [1] (Homo sapiens) is over 1000 nM.
The same measure, in the same setting: as for `C[C@@H]1CN(C(=O)C(=O)Nc2cnc(N)c3cn[nH]c23)[C@@H](c2ccccc2)CN1C(=O)C1(C(F)(F)F)CC1` [Compound 155], the figure is under 100 nM; as for `COc1ncc(NC(=O)C(=O)N2C[C@H](C)N(C(=O)C3(C)CC3)C[C@H]2c2ccc(F)cc2)cc1C(N)=O` [Compound 5, 5-(2-((2R,5S)-2-(4-fluorophenyl)-5-methyl-4-(1-methylcyclopropanecarbonyl)piperazin-1-yl)-2-oxoacetamido)-2-methoxynicotinamide], 100 to 1000 nM; as for `Cc1cc(NC(=O)C(=O)N2C[C@H](C)N(C(=O)C3(C(F)(F)F)CC3)C[C@H]2c2ccc(F)cc2)cnc1N` [Compound 64], over 1000 nM.
The same measure, in the same setting: as for `C[C@@H]1CN(C(=O)C(=O)Nc2cnc(N)c(C3CC3)c2)[C@H](c2ccc(F)cc2)CN1C(=O)CC1CC1` [Compound 136], the figure is over 1000 nM.
Consider `CC(C)C(=O)N1C[C@H](c2ccccc2)N(C(=O)C(=O)Nc2cnc(N)c3c2cnn3C)C[C@H]1C` [Compound 165, N-(7-Amino-1-methyl-pyrazolo[3,4-c]pyridin-4-yl)-2-oxo-2-[(2S,5R)-5-methyl-4-(2-methylpropanoyl)-2-phenyl-piperazin-1-yl]acetamide], for which, in test [1] (Homo sapiens), the IC50 is under 100 nM.
Still for that read-out and setting: the same measure for `Cc1cc(NC(=O)C(=O)N2C[C@@H](C)N(C(=O)C3(C)CC3)C[C@@H]2c2ccc(F)cc2)cnc1N` [Compound 104, N-(6-amino-5-methylpyridin-3-yl)-2-((2S,5R)-2-(4-fluorophenyl)-5-methyl-4-(1-methylcyclopropanecarbonyl)piperazin-1-yl)-2-oxoacetamide]: under 100 nM; for `C[C@@H]1CN(C(=O)C(=O)Nc2cncc3[nH]ncc23)C(c2ccc(F)cc2)CN1C(=O)C(C)(C)C` (stereo in doubt) [Compound 103, 2-[(2S,5R)-4-(2,2-dimethylpropanoyl)-2-(4-fluorophenyl)-5-methyl-piperazin-1-yl]-2-oxo-N-(1H-pyrazolo[3,4-c]pyridin-4-yl)acetamide]: over 1000 nM; for `C[C@@H]1CN(C(=O)C(=O)Nc2cnc(N)c(C3CC3)c2)[C@@H](c2ccc3scnc3c2)CN1C(=O)C1(C(F)(F)F)CC1` [Compound 141, N-(6-amino-5-cyclopropyl-3-pyridyl)-2-[(2S,5R)-2-(1,3-benzothiazol-5-yl)-5-methyl-4-[1-(trifluoromethyl)cyclopropanecarbonyl]piperazin-1-yl]-2-oxo-acetamide]: under 100 nM.
The same measure, in the same setting: the same measure for `C[C@H]1CN(C(=O)C(=O)Nc2cnc(N)c(C3CC3)c2)[C@@H](c2ccc(F)cc2)CN1C(=O)CC1CC1` [Compound 56]: over 1000 nM; for `CC(=O)N1C[C@H](c2ccccc2)N(C(=O)C(=O)Nc2cnc(N)c3c2cnn3C)C[C@H]1C` [Compound 168, N-(7-Amino-1-methyl-pyrazolo[3,4-c]pyridin-4-yl)-2-oxo-2-[(2S,5R)-4-acetyl-5-methyl-2-phenyl-piperazin-1-yl]acetamide]: under 100 nM; for `Cc1cc(NC(=O)C(=O)N2C[C@@H](C)N(C(=O)C(C)C)C[C@@H]2c2ccc(F)cc2)cnc1N` (relative stereo) [Compound 20, N-(6-amino-5-methyl-3-pyridyl)-2-[(2S,5R)-2-(4-fluorophenyl)-5-methyl-4-(2-methylpropanoyl)piperazin-1-yl]-2-oxo-acetamide]: 100 to 1000 nM.
On the same count and under the same terms, as for `Cc1cc(NC(=O)C(=O)N2CC(C)N(C(=O)C(C)C)C[C@@H]2c2ccc(F)c(F)c2)cnc1N` (stereo in doubt) [Compound 23, N-(6-amino-5-methylpyridin-3-yl)-2-((2S,5R)-2-(3,4-difluorophenyl)-4-isobutyryl-5-methylpiperazin-1-yl)-2-oxoacetamide], the figure is over 1000 nM; as for `C[C@@H]1CN(C(=O)C(=O)Nc2cnc(N)c3c2cnn3C)[C@@H](c2ccccc2)CN1C(=O)C1(C(F)(F)F)CC1` [Compound 166, N-(7-Amino-1-methyl-pyrazolo[3,4-c]pyridin-4-yl)-2-oxo-2-[(2S,5R)-5-methyl-2-phenyl-4-[1-(trifluoromethyl)cyclopropanecarbonyl]piperazin-1-yl]acetamide], under 100 nM.
`C[C@@H]1CN(C(=O)C(=O)Nc2cnc(N)c3cn[nH]c23)[C@@H](c2ccccc2)CN1C(=O)C1(C)CC1` (racemic) [Compound 161, N-(4-Amino-1H-pyrazolo[4,3-c]pyridin-7-yl)-2-oxo-2-[rac-(2S,5R)-5-methyl-4-(1-methylcyclopropanecarbonyl)-2-phenyl-piperazin-1-yl]acetamide] registered an IC50 in test [1] (Homo sapiens) of under 100 nM.
Still for that read-out and setting: the same measure for `Cc1cc(NC(=O)C(=O)N2C[C@@H](C)N(C(=O)C3(C(F)(F)F)CC3)C[C@@H]2c2ccc(F)cc2)cnc1N` [Compound 27]: under 100 nM; for `CC(C)OC(=O)N1C[C@@H](c2ccc(F)cc2)N(C(=O)C(=O)Nc2cnc(N)c(C3CC3)c2)C[C@H]1C` (stereo in doubt) [Compound 82, isopropyl 4-(2-((6-amino-5-cyclopropylpyridin-3-yl)amino)-2-oxoacetyl)-5-(4-fluorophenyl)-2-methylpiperazine-1-carboxylate]: over 1000 nM; for `CC(C)CN1C[C@@H](c2ccc(F)cc2)N(C(=O)C(=O)Nc2cnc(N)c(C3CC3)c2)C[C@@H]1C` (single isomer, unassigned) [Compound 26]: over 1000 nM.
Same read-out and setting: as for `Cc1cc(NC(=O)C(=O)N2C[C@@H](C)N(C(=O)C(C)C)C[C@@H]2c2ccc(F)cc2)cnc1N` (racemic) [Compound 157, rac-N-(6-amino-5-methylpyridin-3-yl)-2-(2-(4-fluorophenyl)-4-isobutyryl-5-methylpiperazin-1-yl)-2-oxoacetamide], the figure is 100 to 1000 nM.
Turning to `CC(C)C(=O)N1C[C@H](c2ccc(F)cc2)N(C(=O)C(=O)Nc2cnc(N)c(C3CC3)c2)C[C@H]1C` [Compound 19], the “Hap1 MTAP intact/deleted ratio” value in test [3] is on record as “C (an IC50 ratio of less than 15 fold)”.
`Cc1cc(NC(=O)C(=O)N2C[C@@H](C)N(C(=O)C(C)(C)C)C[C@@H]2c2ccc(F)cc2)cnc1N` [Compound 3, N-(6-amino-5-methylpyridin-3-yl)-2-((2S,5R)-2-(4-fluorophenyl)-5-methyl-4-pivaloylpiperazin-1-yl)-2-oxoacetamide]: the IC50 in test [1] (Homo sapiens) was under 100 nM.
The same measure, in the same setting: as for `CC(C)OC(=O)N1C[C@H](c2ccc(F)cc2)N(C(=O)C(=O)Nc2cnc(N)c(C3CC3)c2)C[C@@H]1C` (stereo in doubt) [Compound 95, isopropyl 4-(2-((6-amino-5-cyclopropylpyridin-3-yl)amino)-2-oxoacetyl)-5-(4-fluorophenyl)-2-methylpiperazine-1-carboxylate], the figure is over 1000 nM.
